Holding throughout (type): cell-based
One assay addresses GSPT1 (Homo sapiens, UniProt P15170+Q96SW2). Put plainly: GSPT1 Cellular Degradation Assay (DF15-GSPT1-ePL). Also noted: expressed in transfected cells. As to conditions: DF15-GSPT1-ePL cells, 20 hours. The method, boiled down: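 DC50 and Dmax were derived from chemiluminescence, with 75% response set by the reference compound at […]. Readout was ePL enzyme-fragment complementation in a DF15 line expressing chimeric GSPT1. Cells were exposed to compound for 20 h at 37 °C in RPMI 1640 with 10% FBS, cooled 30 min, then lysed with substrate for 60 min.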

For the next assay, the target named is Cyclin E1 (Homo sapiens, UniProt P24864+Q96SW2). Put plainly: Cyclin E1 Cellular Degradation Assay (MSD). Conditions: for DC50 / Dmax: Cyclin E1 cellular degradation; for Dmax: maximum degradation; for Ratio of GSPT1 DC50/Cyclin E1 DC50: selectivity for degradation of Cyclin E1 over GSPT1. Set-up: endogenous in cells; host or cells: OVCAR3. The method, boiled down: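 Cyclin E1 remaining after 24 h compound exposure of OVCAR3 cells was quantified in lysates by electrochemiluminescent MSD sandwich assay. DC50 (50% response concentration) and Dmax (maximum response) were calculated, with 110% response set by a reference compound at […].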

For the next assay, the system named is Phospho-Rb (Ser807/811). Put plainly: Phospho-Retinoblastoma (pRB) Cellular Assay. As to conditions: Homo sapiens, OVCAR-3, NIH OVCAR3 cells, 24 hours; for IC50: concentration giving 50% response; for Emax: maximum response, reference compound at 10 μM = 100%, read-out: pRB Ymax. The method, boiled down:
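Phospho-Rb (Ser807/811) kit read-out on EnVision after lysis (≥4 h, room temperature, dark) of OVCAR3 cells exposed to compound dilutions for 24 h. IC50 and maximum response Ymax are relative to a 10 μM reference compound defining 100%.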

Bounds are passed on as bounds.

As usually defined, the DC50 is the concentration giving 50% degradation. Low values mean degradation at low concentration, high ones degradation only at high concentration. One may read the Dmax as the greatest extent of degradation seen. A word on the IC50: it is the concentration that gives 50% inhibition. A high value points to weaker potency.

GSPT1, sequence (P15170 whole entry, the tested form may be a part): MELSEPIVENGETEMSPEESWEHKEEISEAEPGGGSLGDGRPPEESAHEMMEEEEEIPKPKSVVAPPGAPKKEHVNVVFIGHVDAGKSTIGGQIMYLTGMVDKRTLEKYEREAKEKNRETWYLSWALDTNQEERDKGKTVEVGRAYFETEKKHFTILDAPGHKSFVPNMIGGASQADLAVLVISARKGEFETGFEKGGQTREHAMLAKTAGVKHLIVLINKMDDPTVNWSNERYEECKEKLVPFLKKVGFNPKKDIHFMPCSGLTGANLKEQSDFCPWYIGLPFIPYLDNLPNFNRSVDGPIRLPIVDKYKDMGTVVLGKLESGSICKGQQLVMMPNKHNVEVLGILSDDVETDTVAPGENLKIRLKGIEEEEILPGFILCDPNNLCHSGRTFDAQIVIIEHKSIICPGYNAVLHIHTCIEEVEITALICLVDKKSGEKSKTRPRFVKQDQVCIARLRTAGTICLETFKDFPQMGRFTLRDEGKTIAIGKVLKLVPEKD
GSPT1, sequence (Q96SW2 whole entry, the tested form may be a part): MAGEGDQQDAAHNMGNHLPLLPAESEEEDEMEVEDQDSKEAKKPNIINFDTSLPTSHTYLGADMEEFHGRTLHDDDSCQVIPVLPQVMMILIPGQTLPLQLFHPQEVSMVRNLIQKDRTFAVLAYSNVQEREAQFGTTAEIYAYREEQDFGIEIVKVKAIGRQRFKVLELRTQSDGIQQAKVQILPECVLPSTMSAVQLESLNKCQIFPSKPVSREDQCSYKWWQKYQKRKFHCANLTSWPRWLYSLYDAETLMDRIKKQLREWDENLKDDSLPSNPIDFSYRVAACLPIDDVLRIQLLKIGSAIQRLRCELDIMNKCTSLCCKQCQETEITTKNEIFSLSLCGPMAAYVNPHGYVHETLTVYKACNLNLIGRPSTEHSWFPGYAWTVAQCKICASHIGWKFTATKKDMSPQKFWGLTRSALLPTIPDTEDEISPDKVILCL
GSPT1, sequence (Q16531 whole entry partner, the tested form may be a part): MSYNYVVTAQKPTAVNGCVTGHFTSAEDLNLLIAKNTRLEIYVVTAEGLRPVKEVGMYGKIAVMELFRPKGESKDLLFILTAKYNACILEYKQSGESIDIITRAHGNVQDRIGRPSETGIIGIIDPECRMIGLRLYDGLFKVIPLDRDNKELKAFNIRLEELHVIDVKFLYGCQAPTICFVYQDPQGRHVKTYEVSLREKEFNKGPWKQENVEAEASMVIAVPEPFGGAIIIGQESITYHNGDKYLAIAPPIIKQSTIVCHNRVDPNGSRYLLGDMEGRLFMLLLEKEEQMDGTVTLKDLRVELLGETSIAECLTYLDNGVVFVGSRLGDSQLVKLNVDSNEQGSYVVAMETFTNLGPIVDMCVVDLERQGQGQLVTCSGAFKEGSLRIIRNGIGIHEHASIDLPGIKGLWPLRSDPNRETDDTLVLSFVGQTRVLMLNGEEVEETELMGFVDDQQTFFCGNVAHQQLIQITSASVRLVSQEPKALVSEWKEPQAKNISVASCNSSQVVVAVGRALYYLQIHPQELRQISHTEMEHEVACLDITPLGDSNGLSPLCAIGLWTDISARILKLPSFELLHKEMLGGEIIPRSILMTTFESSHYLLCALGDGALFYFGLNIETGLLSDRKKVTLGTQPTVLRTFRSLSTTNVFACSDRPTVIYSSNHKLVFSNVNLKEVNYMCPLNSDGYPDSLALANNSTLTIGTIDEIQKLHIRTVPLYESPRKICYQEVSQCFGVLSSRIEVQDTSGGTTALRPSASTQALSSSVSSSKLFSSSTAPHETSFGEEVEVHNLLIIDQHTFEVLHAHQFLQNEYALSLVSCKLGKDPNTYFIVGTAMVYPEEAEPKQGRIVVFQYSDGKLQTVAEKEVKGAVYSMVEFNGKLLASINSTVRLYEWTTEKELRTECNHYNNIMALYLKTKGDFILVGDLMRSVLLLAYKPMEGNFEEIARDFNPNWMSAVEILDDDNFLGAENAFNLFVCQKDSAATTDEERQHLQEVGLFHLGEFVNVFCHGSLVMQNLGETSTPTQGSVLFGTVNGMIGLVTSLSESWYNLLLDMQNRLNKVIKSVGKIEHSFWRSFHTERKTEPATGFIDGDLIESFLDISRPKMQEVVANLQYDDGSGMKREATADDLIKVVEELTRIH
Cyclin E1, sequence (P24864 whole entry): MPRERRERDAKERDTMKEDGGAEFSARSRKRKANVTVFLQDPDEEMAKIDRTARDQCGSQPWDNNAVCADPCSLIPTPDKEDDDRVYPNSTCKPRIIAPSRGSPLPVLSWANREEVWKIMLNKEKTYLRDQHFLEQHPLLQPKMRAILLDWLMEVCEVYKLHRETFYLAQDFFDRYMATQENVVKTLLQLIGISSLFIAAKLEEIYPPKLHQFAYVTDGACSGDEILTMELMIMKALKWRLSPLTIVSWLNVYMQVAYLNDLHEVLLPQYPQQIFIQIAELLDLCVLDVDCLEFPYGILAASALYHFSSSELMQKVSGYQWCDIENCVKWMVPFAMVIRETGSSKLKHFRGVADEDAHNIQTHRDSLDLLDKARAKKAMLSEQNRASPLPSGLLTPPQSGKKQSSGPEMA
Cyclin E1, sequence (Q96SW2 whole entry): as the sequence (Q96SW2 whole entry, the tested form may be a part) above
Cyclin E1, sequence (Q16531 whole entry partner): as the sequence (Q16531 whole entry partner, the tested form may be a part) above

In the case of `COc1c(COC(=O)Nc2ccc(Oc3ccc(F)c(F)c3)cc2C)ccc2c1C(=O)N(C1CCC(=O)NC1=O)C2` (stereo not drawn) [Example 38, [2-(2,6-dioxopiperidin-3-yl)-4-methoxy-3-oxo-2,3-dihydro-1H-isoindol-5-yl]methyl N-[4-(3,4-difluorophenoxy)-2-methylphenyl]carbamate], on GSPT1, the DC50 worked out at 4000 nM and the Dmax is 46%. For the same compound, at Cyclin E1, the DC50 was determined as 91 nM, the Dmax stood at 107% and the “Ratio of GSPT1 DC50/Cyclin E1 DC50” value stood at 44. In addition, in the assay on Phospho-Rb (Ser807/811), the IC50 was found to be 128 nM and the Emax came out at 111%.
Regarding `COc1c(COC(=O)Nc2ccc(Oc3cccc(F)c3)cc2C)ccc2c1C(=O)N(C1CCC(=O)NC1=O)C2` (stereo not drawn) [Example 39, [2-(2,6-dioxopiperidin-3-yl)-4-methoxy-3-oxo-2,3-dihydro-1H-isoindol-5-yl]methyl N-[4-(3-fluorophenoxy)-2-methylphenyl]carbamate], at GSPT1, the 50% degradation concentration (DC50) is greater than 14000 nM and the Dmax turned out to be 20%. At Cyclin E1, half-maximal degradation (DC50) was put at 103 nM, the Dmax amounted to 108% and the “Ratio of GSPT1 DC50/Cyclin E1 DC50” value is recorded as greater than 136. Moreover, in the assay on Phospho-Rb (Ser807/811), the IC50 was 127 nM and the Emax is 111%.
As for `COc1c(COC(=O)Nc2ccc(Oc3cc(F)c(F)c(F)c3)cc2C)ccc2c1C(=O)N(C1CCC(=O)NC1=O)C2` (stereo not drawn) [Example 40, [2-(2,6-dioxopiperidin-3-yl)-4-methoxy-3-oxo-2,3-dihydro-1H-isoindol-5-yl]methyl N-[2-methyl-4-(3,4,5-trifluorophenoxy)phenyl]carbamate], at GSPT1, the DC50 is greater than 14000 nM and the Dmax was found to be 9%. Further, at Cyclin E1, the DC50 stood at 41 nM, the Dmax was found to be 108% and the “Ratio of GSPT1 DC50/Cyclin E1 DC50” value is given as greater than 339. In addition, in the assay on Phospho-Rb (Ser807/811), the IC50 amounted to 128 nM and the Emax was found to be 110%.
Take `COc1c(COC(=O)Nc2ccc(C(C)(C)c3ccccc3)cc2)ccc2c1C(=O)N(C1CCC(=O)NC1=O)C2` (stereo not drawn) [Example 41, [2-(2,6-dioxopiperidin-3-yl)-4-methoxy-3-oxo-2,3-dihydro-1H-isoindol-5-yl]methyl N-[4-(2-phenylpropan-2-yl)phenyl]carbamate]: on GSPT1, the DC50 was greater than 14000 nM and the Dmax was determined as 13%. Moreover, at Cyclin E1, the half-maximal degradation concentration (DC50) came out at 336 nM, the Dmax turned out to be 92% and the “Ratio of GSPT1 DC50/Cyclin E1 DC50” value is recorded as greater than 42. Also, in the assay on Phospho-Rb (Ser807/811), the IC50 came to 248 nM and the Emax is 100%.
`COc1c(COC(=O)Nc2ccc(Oc3ccc(F)cc3F)cc2C)ccc2c1C(=O)N(C1CCC(=O)NC1=O)C2` (stereo not drawn) [Example 42, [2-(2,6-dioxopiperidin-3-yl)-4-methoxy-3-oxo-2,3-dihydro-1H-isoindol-5-yl]methyl N-[4-(2,4-difluorophenoxy)-2-methylphenyl]carbamate]: on GSPT1, the DC50 was greater than 14000 nM and the Dmax is 20%. On Cyclin E1, the DC50 was found to be 96 nM, the Dmax amounted to 106% and the “Ratio of GSPT1 DC50/Cyclin E1 DC50” value is greater than 146. In the assay on Phospho-Rb (Ser807/811), 132 nM corresponded to half-maximal inhibition (IC50) and the Emax was 110%.
Regarding `COc1c(COC(=O)Nc2ccc(Oc3cc(F)c(F)cc3F)cc2F)ccc2c1C(=O)N(C1CCC(=O)NC1=O)C2` (stereo not drawn) [Example 43, [2-(2,6-dioxopiperidin-3-yl)-4-methoxy-3-oxo-2,3-dihydro-1H-isoindol-5-yl]methyl N-[2-fluoro-4-(2,4,5-trifluorophenoxy)phenyl]carbamate], at GSPT1, the DC50 was greater than 14000 nM and the Dmax stood at 33%. Also, on Cyclin E1, the DC50 is 165 nM, the Dmax came out at 111% and the “Ratio of GSPT1 DC50/Cyclin E1 DC50” value is on record as greater than 85. In the assay with Phospho-Rb (Ser807/811), 131 nM corresponded to half-maximal inhibition (IC50) and the Emax amounted to 121%.
`COc1c(COC(=O)Nc2ccc(Oc3cc(F)c(F)cc3F)cc2)ccc2c1C(=O)N(C1CCC(=O)NC1=O)C2` (stereo not drawn) [Example 44, [2-(2,6-dioxopiperidin-3-yl)-4-methoxy-3-oxo-2,3-dihydro-1H-isoindol-5-yl]methyl N-[4-(2,4,5-trifluorophenoxy)phenyl]carbamate]: on GSPT1, the DC50 is greater than 14000 nM and the Dmax stood at 42%. At Cyclin E1, half-maximal degradation (DC50) was put at 273 nM, the Dmax worked out at 111% and the “Ratio of GSPT1 DC50/Cyclin E1 DC50” value is reported as greater than 51. In the assay on Phospho-Rb (Ser807/811), half-maximal inhibition (IC50) was put at 109 nM and the Emax stood at 111%.
As to `COc1c(COC(=O)Nc2ccc(Oc3cc(F)c(F)cc3F)cc2C)ccc2c1C(=O)N(C1CCC(=O)NC1=O)C2` (stereo not drawn) [Example 45, [2-(2,6-dioxopiperidin-3-yl)-4-methoxy-3-oxo-2,3-dihydro-1H-isoindol-5-yl]methyl N-[2-methyl-4-(2,4,5-trifluorophenoxy)phenyl]carbamate], at GSPT1, the half-maximal degradation concentration (DC50) was greater than 14000 nM and the Dmax was determined as 38%. At Cyclin E1, the DC50 worked out at 129 nM, the Dmax amounted to 112% and the “Ratio of GSPT1 DC50/Cyclin E1 DC50” value was greater than 108. In the assay with Phospho-Rb (Ser807/811), inhibition was half-maximal at 112 nM (IC50) and the Emax worked out at 116%.
On to `COc1c(COC(=O)Nc2ccc(Oc3ccc(F)c(F)c3)cc2Cl)ccc2c1C(=O)N(C1CCC(=O)NC1=O)C2` (stereo not drawn) [Example 46, [2-(2,6-dioxopiperidin-3-yl)-4-methoxy-3-oxo-2,3-dihydro-1H-isoindol-5-yl]methyl N-[2-chloro-4-(3,4-difluorophenoxy)phenyl]carbamate], for which, at GSPT1, the DC50 was greater than 14000 nM and the Dmax came out at 42%. Further, at Cyclin E1, it took 357 nM to reach half-maximal degradation (DC50), the Dmax was found to be 105% and the “Ratio of GSPT1 DC50/Cyclin E1 DC50” value is on record as greater than 39. Also, in the assay on Phospho-Rb (Ser807/811), half-maximal inhibition (IC50) was put at 376 nM and the Emax came out at 102%.
Regarding `COc1cc(Oc2ccc(F)c(F)c2)ccc1NC(=O)OCc1ccc2c(c1OC)C(=O)N(C1CCC(=O)NC1=O)C2` (stereo not drawn) [Example 47, [2-(2,6-dioxopiperidin-3-yl)-4-methoxy-3-oxo-2,3-dihydro-1H-isoindol-5-yl]methyl N-[4-(3,4-difluorophenoxy)-2-methoxyphenyl]carbamate], on GSPT1, the 50% degradation concentration (DC50) was greater than 14000 nM and the Dmax was found to be 20%. Also, on Cyclin E1, the DC50 was 320 nM, the Dmax came out at 101% and the “Ratio of GSPT1 DC50/Cyclin E1 DC50” value is given as greater than 44. Also, in the assay on Phospho-Rb (Ser807/811), the IC50 was 361 nM and the Emax was 107%.
Turning to `COc1cc(Oc2cccc(F)c2)ccc1NC(=O)OCc1ccc2c(c1OC)C(=O)N(C1CCC(=O)NC1=O)C2` (stereo not drawn) [Example 48, [2-(2,6-dioxopiperidin-3-yl)-4-methoxy-3-oxo-2,3-dihydro-1H-isoindol-5-yl]methyl N-[4-(3-fluorophenoxy)-2-methoxyphenyl]carbamate], on GSPT1, the half-maximal degradation concentration (DC50) is greater than 14000 nM and the Dmax stood at 46%. On Cyclin E1, half-maximal degradation (DC50) was put at 139 nM, the Dmax stood at 111% and the “Ratio of GSPT1 DC50/Cyclin E1 DC50” value is greater than 101. Further, in the assay on Phospho-Rb (Ser807/811), the IC50 turned out to be 69 nM and the Emax came out at 108%.
As for `COc1cc(Oc2ccc(F)cc2F)ccc1NC(=O)OCc1ccc2c(c1OC)C(=O)N(C1CCC(=O)NC1=O)C2` (stereo not drawn) [Example 49, [2-(2,6-dioxopiperidin-3-yl)-4-methoxy-3-oxo-2,3-dihydro-1H-isoindol-5-yl]methyl N-[4-(2,4-difluorophenoxy)-2-methoxyphenyl]carbamate], at GSPT1, the DC50 is greater than 14000 nM and the Dmax turned out to be 24%. In addition, on Cyclin E1, half-maximal degradation (DC50) was put at 77 nM, the Dmax was 106% and the “Ratio of GSPT1 DC50/Cyclin E1 DC50” value was greater than 181. In addition, in the assay on Phospho-Rb (Ser807/811), the IC50 was 171 nM and the Emax came to 116%.
As for `COc1cc(Oc2ccc(F)cc2OC)ccc1NC(=O)OCc1ccc2c(c1OC)C(=O)N(C1CCC(=O)NC1=O)C2` (stereo not drawn) [Example 50, [2-(2,6-dioxopiperidin-3-yl)-4-methoxy-3-oxo-2,3-dihydro-1H-isoindol-5-yl]methyl N-[4-(4-fluoro-2-methoxyphenoxy)-2-methoxyphenyl]carbamate], on GSPT1, the DC50 is greater than 14000 nM and the Dmax amounted to 25%. Further, at Cyclin E1, it took 463 nM to reach half-maximal degradation (DC50), the Dmax worked out at 77% and the “Ratio of GSPT1 DC50/Cyclin E1 DC50” value was greater than 30. Further, in the assay with Phospho-Rb (Ser807/811), the IC50 came to 2080 nM and the Emax stood at 77%.
As for `COc1c(COC(=O)Nc2ccc(Oc3ccc(F)cc3)cc2C)ccc2c1C(=O)N(C1CCC(=O)NC1=O)C2` (stereo not drawn) [Example 51, [2-(2,6-dioxopiperidin-3-yl)-4-methoxy-3-oxo-2,3-dihydro-1H-isoindol-5-yl]methyl N-[4-(4-fluorophenoxy)-2-methylphenyl]carbamate], on GSPT1, the DC50 was greater than 14000 nM and the Dmax is 16%. Also, on Cyclin E1, the DC50 amounted to 363 nM, the Dmax came to 106% and the “Ratio of GSPT1 DC50/Cyclin E1 DC50” value is greater than 39. For the same compound, in the assay with Phospho-Rb (Ser807/811), 188 nM corresponded to half-maximal inhibition (IC50) and the Emax was 109%.
As to `CCOc1c(COC(=O)Nc2ccc(Oc3ccccc3)cc2)ccc2c1C(=O)N(C1CCC(=O)NC1=O)C2` (stereo not drawn) [Example 52, [2-(2,6-dioxopiperidin-3-yl)-4-ethoxy-3-oxo-2,3-dihydro-1H-isoindol-5-yl]methyl N-(4-phenoxyphenyl)carbamate], at GSPT1, the DC50 was greater than 14000 nM and the Dmax was found to be 13%. On Cyclin E1, the DC50 was 134 nM, the Dmax turned out to be 107% and the “Ratio of GSPT1 DC50/Cyclin E1 DC50” value was greater than 105. In the assay on Phospho-Rb (Ser807/811), the IC50 came to 81 nM and the Emax was 111%.
